We go through 16 compounds from patent US20230339882A1, “SHP2 INHIBITOR AND COMPOSITION AND APPLICATION THEREOF” (Betta Pharmaceuticals Co., Ltd., priority 2020, published 2023).

The subject of one test is leukemia cells MV-4-11. The test can be described thus: Cell proliferation assay, CELL TITER-GLO (CTG) luminescence, MV-4-11. The test is classed as cell-based. The procedure: (§1) Example B: Cell Proliferation Assay
(§2) The effects of the compounds of the invention on the proliferation of leukemia cells MV-4-11 and lung cancer cells NCI-H358 were evaluated using in vitro cell assays. The detection method used in the experiment is the CELL TITER-GLO (CTG) luminescence method, which can detect the number of viable cells by quantifying ATP. Because ATP participates in a variety of enzymatic reactions in vivo, it is an indicator of the metabolism of living cells, and its content directly reflects the number and state of cells. During the experiment, CellTiter-Glo™ reagent was added to the cell culture medium to measure the luminescence value. The value is proportional to the amount of ATP, and ATP is positively related to the number of living cells, so the cell viability can be examined by detecting the ATP content.
(§3) experiment procedure: • (1) Cell plating: • Take a bottle of MV-4-11 cells in logarithmic growth phase, resuspend the cells by centrifugation and count them. After adjusting the cell density, they were seeded into a 96-well plate (Corning #3917). After culturing in a 5% CO2 incubator for 24 hrs, the compound of the present invention was added for treatment; • Take a bottle of NCI-H358 cells in logarithmic growth phase, digest and resuspend the cells, count them, adjust the cell density, and inoculate them into a 96-well transparent ultra-low adsorption cell culture plate (Corning #3474), inoculate 2000 cells per well. The plate was placed in an incubator at 37° C. and 5% CO2 for 24 hrs, and then the compound of the present invention was added for treatment; • (2) Cell compound treatment: • An appropriate amount of the compound of the present invention was prepared for cell treatment. The final concentration of the compound from high to low was 1000 nM, 333.3 nM, 111.1 nM, 37.04 nM, 12.35 nM, 4.115 nM, 1.372 nM, 0.4572 nM, 0.1524 nM, and 0 nM. The plate was placed in a 37° C., 5% CO2 incubator for 120 hrs. Only adding medium without cell wells was set as the blank group; the group with compound concentration of 0 nM was the zero-adjusting group. • (3) CTG detection: • After NCI-H358 cells were cultured for 96 hrs, 50 µL of CellTiter-Glo® Luminescent Cell Viability Assay solution was added to each well, shaken gently for 2 mins, and incubated at room temperature for 10 mins. The cell reaction system was transferred to a white-bottomed 96-well plate. Read the detection value of each well on a multi-function microplate reader. • After MV-4-11 cells were cultured for 120 hrs, 50 µL of CellTiter-Glo® Luminescent Cell Viability Assay solution was added to each well, gently shaken for 2 mins, and incubated at room temperature for 10 mins. Check the value. • (4) Data analysis: • Calculate the inhibition rate from the luminescence value readings, • [formula]
(§4) The log(inhibitor) vs. response-Variable slope of GraphPad Prism was fitted to dose-response curves and IC50s of compounds that inhibited cell proliferation were calculated.

Test [1] deals with lung cancer cells NCI-H358. The test can be described thus: Cell proliferation assay, CELL TITER-GLO (CTG) luminescence, NCI-H358. The test is classed as cell-based. Conditions: cultured for 96 hrs. The protocol:
as §1, §2, §3, §4

For the next test, the target named is SHP2 (Homo sapiens (Human), UniProt Q06124). Put plainly: SHP2 allosteric inhibitory enzyme activity assay (DiFMUP fluorescence). It is filed as biochemical. Particulars: read-out: SHP2 enzymatic activity IC50. From the text:
Example A: SHP2 Allosteric Inhibitory Enzyme Activity Assay
SHP2 is allosterically activated by binding of a bis-tyrosyl-phosphorylated peptide to its Src homology 2 (SH2) domain. This later activation step results in the release of the autoinhibitory interface of SHP2, which in turn activates the SHP2 protein tyrosine phosphatase (PTP) and is available for substrate recognition and reaction catalysis. The catalytic activity of SHP2 was monitored using the surrogate DiFMUP in a rapid fluorescence assay format.
experiment procedure: • (1) Compound preparation: • The compounds of the present invention (10 mM stock solution) were diluted to appropriate times with 100% DMSO, and the final test concentrations of the compounds of the present invention were 10 µM, 3.3333 µM, 1.1111 µM, 0.3704 µM, 0.1235 µM, 0.0412 µM, 0.0137 µM, 0.0046 µM, 0.0015 µM, 0.00 µM; • (2) Prepare the enzyme reaction working solution: • Perform SHP2 enzymatic assays in 96-well black polystyrene plates (flat bottom, low flange, non-binding surface) (Perki Elmer, Cat#6005270) at room temperature using a final reaction volume of 50 µL and the following assay buffer conditions: 60 mM HEPES, 75 mM NaCl, 75 mM KCl, 0.05% BRIJ-35, 1 mM EDTA, 5 mM DTT. • (3) Enzyme-catalyzed reaction and data monitoring: • Add the compound of the present invention to the corresponding 96-well plate, and set the blank test well without compound and enzyme only with buffer. Thaw SHP2 Activating Peptide (IRS1_pY1172(dPEG8)pY1222) on ice, add 25 µM to each well, then add 0.2 ng of SHP2 protein sample to the corresponding well plate and incubate at room temperature for 1 hour. The surrogate substrate DiFMUP (Invitrogen, Cat #D6567) was added to the reaction and allowed to react for 1 hour at room temperature. Fluorescence signals were monitored using a microplate reader (Envision, Perki Elmer) using excitation and emission wavelengths of 340 nm and […], respectively. • (4) Data analysis: • Calculation Formula: • [formula]
Among them: Conversion_sample is the conversion rate reading of the sample; Conversion_min is the average value of blank control wells, representing the conversion rate readings of wells without enzymatic activity; Conversion_max is the mean ratio of positive control wells, representing the conversion rate readings of wells without compound inhibition. The log(inhibitor) vs. response-Variable slope of the analysis software GraphPad Prism was used to fit the dose-response curve, and the IC50 value of the compound for the enzymatic activity was calculated.

Where [2] appears, read: Homo sapiens, MV4-11, cultured for 120 hrs.
Setting [3] is: Homo sapiens, NCI-H358, ultra-low adsorption plate.

Take `CC(=O)Nc1cccc(OCC#Cc2cnc(N3CCC4(CC3)Cc3ccccc3[C@H]4N)n(C)c2=O)c1` [Compound A34, (S)-N-(3-((3-(2-(1-amino-1,3-dihydrospiro[indene-2,4′-piperidin]-1′-yl)-1-methyl-6-oxo-1,6-dihydropyrimidin-5-yl)prop-2-yn-1-yl)oxy)phenyl)acetamide]: the IC50 with leukemia cells MV-4-11 (setting [2]) turned out to be 25 nM; in test [1] (setting [3]) it was 51 nM.

With `Cc1nc2cc(OCC#Cc3cnc(N4CCC5(CC4)Cc4ccccc4[C@H]5N)c(CO)n3)ccc2[nH]1` [Compound A73, (S)-(3-(1-amino-1,3-dihydrospiro[indene-2,4′-piperidin]-1′-yl)-6-(3-( (2-methyl-1H-Benzo[d]imidazol-5-yl)oxy)prop-1-yn-1-yl)pyrazin-2-yl)methanol], the IC50 worked out at 3.1 nM at SHP2, 1.1 nM in the test with leukemia cells MV-4-11 (setting [2]) and 3.4 nM in test [1] (setting [3]).

As to “(S)-(3-(1-amino-1,3-dihydrospiro[ indene-2,4′-piperidin]-1′-yl)-6-(3-( 3,4-dimethoxyphenoxy)prop-1-yn-1-y 1)pyrazin-2-yl)methanol [Compound A11]”, the IC50 at SHP2 was 1.5 nM; with leukemia cells MV-4-11 (cultured for 120 hrs), 2.6 nM; in test [1] (ultra-low adsorption plate), 6.3 nM.

With `N[C@@H]1c2ccccc2CC12CCN(c1ncc(C#CCNc3ccc4c(c3)NC(=O)CC4)nc1CO)CC2` [Compound A64, (S)-7-((3-(5-(1-amino-1,3-dihydrospiro[indene-2,4′-piperidin]-1′-yl)-6-(hydroxymethyl)pyrazin-2-yl)prop-2-yn-1-yl)amino)-3,4-dihydroq uinolin-2(1H)-one], the figures for the 50% inhibitory concentration (IC50) (with leukemia cells MV-4-11 (setting [2]); in test [1] (setting [3])) were 0.9 nM and 2.1 nM, respectively.

Regarding `CC(=O)c1cccc(OCC#Cc2cnc(N3CCC4(CC3)Cc3ccccc3[C@H]4N)c(CO)n2)c1` [Compound A16, (S)-1-(3-((3-(5-(1-amino-1,3-dihydrospiro[indene-2,4′-piperidin]-1′-yl)-6-(hydroxymethyl)pyrazin-2-yl)prop-2-yn-1-yl)oxy)phenyl)etha n-1-one], the results for the half-maximal inhibitory concentration (IC50) (in the test with leukemia cells MV-4-11 (setting [2]); in test [1] (setting [3])) were 6.9 nM and 11 nM, respectively.

Turning to `COc1cccc(SCC#Cc2cnc(N3CCC4(CC3)Cc3ccccc3[C@H]4N)c(CO)n2)c1` [Compound A06, (S)-(3-(1-amino-1,3-dihydrospiro[indene-2,4′-piperidin]-1′-yl)-6-(3-((3-methoxyphenyl)thio)prop-1-yn-1-yl)pyrazin-2-yl)methanol], the values for the IC50 (at SHP2; with leukemia cells MV-4-11 (setting [2]); in test [1] (setting [3])) were 6.8 nM, 8 nM and 11 nM, respectively.

For the compound `Nc1cccc(OCC#Cc2cnc(N3CCC4(CC3)Cc3ccccc3[C@H]4N)c(CO)n2)c1` [Compound A03], the IC50 on SHP2 was 1.1 nM; in the test with leukemia cells MV-4-11 (cultured for 120 hrs) it was 1.5 nM; in test [1] (ultra-low adsorption plate), 2.5 nM.

Turning to `N[C@@H]1c2ccccc2CC12CCN(c1ncc(C#CCOc3ccc4[nH]ncc4c3)nc1CO)CC2` [Compound A67, (S)-(6-(3-((1H-Indazol-5-yl)oxy)prop-1-yn-1-yl)-3-(1-amino-1,3-dihydrospiro[Indene-2,4′-piperidin]-1 ‘-yl)pyrazin-2-yl)methanol], the IC50 with leukemia cells MV-4-11 (setting [2]) worked out at 1 nM; in test [1] (setting [3]), 0.9 nM.

Turning to `CNC(=O)c1ccc(OCC#Cc2cnc(N3CCC4(CC3)Cc3ccccc3[C@H]4N)c(CO)n2)cc1` [Compound A72, (S)-4-((3-(5-(1-amino-1,3-dihydrospiro[indene-2,4′-piperidin]-1′-yl)-6-(hydroxymethyl)pyrazin-2-yl)prop-2-yn-1-yl)oxy)-N-methylbenzamide], the IC50 turned out to be 1.8 nM with leukemia cells MV-4-11 (setting [2]) and 3.5 nM in test [1] (setting [3]).

In the case of `N[C@@H]1c2ccccc2CC12CCN(c1ncc(C#CCOc3ccc(C(F)(F)F)nc3)nc1CO)CC2` [Compound A70, (S)-(3-(1-amino-1,3-dihydrospiro[indene-2,4′-piperidin]-1′-yl)-6-(3-( (6-(trifluoromethyl)pyridin-3-yl)oxy)prop-1-yn-1-yl)pyrazin-2-yl)m ethanol], the IC50 in the test on leukemia cells MV-4-11 (setting [2]) was 6.2 nM; in test [1] (setting [3]) it was 17 nM.

With `N[C@@H]1c2ccccc2CC12CCN(c1ncc(C#CCOc3cccc(Cl)c3F)nc1CO)CC2` [Compound A05, (S)-(3-(1-amino-1,3-dihydrospiro[indene-2,4′-piperidin]-1′-yl)-6-(3-(3-chloro-2-fluorophenoxy)prop-1-yn-1-yl)pyrazin-2-yl)methanol], the IC50 in the test on leukemia cells MV-4-11 (setting [2]) was 14 nM; in test [1] (setting [3]) it was 15 nM.

`CN(C)C(=O)c1cccc(OCC#Cc2cnc(N3CCC4(CC3)Cc3ccccc3[C@H]4N)c(CO)n2)c1` [Compound A36, (S)-3-((3-(5-(1-amino-1,3-dihydrospiro[indene-2,4′-piperidin]-1′-yl)-6-(hydroxymethyl)pyrazin-2-yl)prop-2-yn-1-yl)oxy)-N,N-dimethylb enzamide]: the IC50 was 14 nM in the test with leukemia cells MV-4-11 (setting [2]) and 48 nM in test [1] (setting [3]).

Consider `COc1ccccc1OCC#Cc1cnc(N2CCC3(CC2)Cc2ccccc2[C@H]3N)c(CO)n1` [Compound A10, (S)-(3-(1-amino-1,3-dihydrospiro[indene-2,4′-piperidin]-1′-yl)-6-(3-(2-methoxyphenoxy)prop-1-yn-1-yl)pyrazin-2-yl)methanol], for which the IC50 in the test with leukemia cells MV-4-11 (setting [2]) came out at 4.4 nM; in test [1] (setting [3]), 4.3 nM.

In the case of `NC(=O)c1nc(C#CCOc2ccc3c(c2)C(=O)NC3)cnc1N1CCC2(CC1)Cc1ccccc1[C@H]2N` [Compound A42], at SHP2, the IC50 turned out to be 15 nM.

As for `Nc1nc2cc(OCC#Cc3cnc(N4CCC5(CC4)Cc4ccccc4[C@H]5N)c(CO)n3)ccc2o1` [Compound A69, (S)-(3-(1-amino-1,3-dihydrospiro[inden-2,4′-piperidin]-1′-yl)-6-(3-((2-Aminobenzo[d]oxazol-5-yl)oxy)prop-1-yn-1-yl)pyrazin-2-yl)met hanol], the results for the IC50 (in the test on leukemia cells MV-4-11 (setting [2]); in test [1] (setting [3])) were 0.7 nM and 2.1 nM, respectively.

For `CNC(=O)c1cccc(OCC#Cc2cnc(N3CCC4(CC3)Cc3ccccc3[C@H]4N)c(CO)n2)c1` [Compound A35, (S)-3-((3-(5-(1-amino-1,3-dihydrospiro[indene-2,4′-piperidine]-1′-yl)-6-(hydroxymethyl)pyrazin-2-yl)prop-2-yn-1-yl)oxy)-N-methylben zamide], the values for the half-maximal inhibitory concentration (IC50) (with leukemia cells MV-4-11 (setting [2]); in test [1] (setting [3])) were 3 nM and 3.6 nM, respectively.
